According to patent publication US20030232986A1, “Inhibitors of caspases” (Vertex Pharmaceuticals Incorporated, priority 1998, published 2003):
Read-outs that look alike come from different tables or passages of the source. Where a SMILES comes first, the peptide text is derived from it. [ ]: non-standard residue; d: D form. The star is where a group is joined. Tle = CC(C)(C)[C@H](N)C(=O)O; Bz = O=C(c1ccccc1)*

Legend:
[1] = target: T1, Caspase-1 (Homo sapiens, UniProt P29466); test: Caspase-1 enzyme inhibition (Ki); type: biochemical
T1 sequence (P29466 120-297 limits assumed): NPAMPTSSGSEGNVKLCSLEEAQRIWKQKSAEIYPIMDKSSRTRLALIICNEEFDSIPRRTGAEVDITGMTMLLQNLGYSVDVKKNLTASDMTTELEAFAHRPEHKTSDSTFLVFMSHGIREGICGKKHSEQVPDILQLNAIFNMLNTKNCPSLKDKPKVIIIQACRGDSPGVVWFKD
T1 sequence (P29466 317-404 limits assumed): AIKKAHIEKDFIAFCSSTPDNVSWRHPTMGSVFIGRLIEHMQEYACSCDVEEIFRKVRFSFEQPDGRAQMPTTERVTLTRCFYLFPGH
Experimental: Ki values for test compounds with the various caspases were obtained by the method of Margolin et al. (J. Biol. Chem., 272 pp. 7223-7228 (1997)). Assays were performed in 10 mM Tris (Sigma Corp, St Louis Mo.) pH 7.5, 1 mM Dithiothreitol (DTT, Research Organic INC, Cleveland, Ohio) and 0.1% CHAPS (Pierce, Rockford Ill.) at 37° C. For caspase-3, a solution of 8% glycerol was added to the assay buffer to improve enzyme stability. A 65 μL aliquot of the assay buffer and 5 μL aliquot of the appropriate dilutions of inhibitor in DMSO where pipetted into a 96 well plate, treated with 10 μL of caspase, then diluted in assay buffer (0.5-40 nM active protein by active site titration). A control containing DMSO but no compound was included for each determination. The plates were then incubated for 15 minutes at 37° C., before addition of the appropriate substrate (20 μL, final concentration 1-4×KM, final assay volume 100 μL) to initiate the reaction. Reaction rates were measured at 37° C. either by following the time dependant increase in absorbance at 405 nm (for the pNA substrates) or in fluorescence (Ex 390, Em 460) (for the AMC substrates). The rates obtained were plotted against inhibitor concentration and the data fit to the Morrison tight-binding equation for competitive inhibitors (Morrison, J. F., Biochem. Biophys. Acta, 185 pp. 269-286 (1969)). The substrates used for the individual assays were as follows:
Caspase-1 Suc-YVAD-pNA (Bachem, King of Prussia, Pa.) (final concentration in the assay 80 μM),

[2] = test system: Human Peripheral Blood Mononuclear Cells (PBMC), mature IL-1β; test: PBMC cell assay: IL-1β assay with human peripheral blood mononuclear cells; type: cell-based; settings: LPS-stimulated human PBMC, mature IL-1β in supernatant by ELISA
Description: IL-1β Assay with a Mixed Population of Human Peripheral Blood Mononuclear Cells (PBMC) or Enriched Adherent Mononuclear Cells
Processing of pre-IL-1β by ICE can be measured in cell culture using a variety of cell sources. Human PBMC obtained from healthy donors provides a mixed population of lymphocyte subtypes and mononuclear cells that produce a spectrum of interleukins and cytokines in response to many classes of physiological stimulators. Adherent mononuclear cells from PBMC provides an enriched source of normal monocytes for selective studies of cytokine production by activated cells.
An initial dilution series of test compound in DMSO or ethanol is prepared, with a subsequent dilution into RPMI-10% FBS media (containing 2 mM L-glutamine, 10 mM HEPES, 50 U and 50 ug/ml pen/strep) respectively to yield drugs at 4× the final test concentration containing 0.4% DMSO or 0.4% ethanol. The final concentration of DMSO is 0.1% for all drug dilutions. A concentration titration which brackets the apparent Ki for a test compound determined in an ICE inhibition assay is generally used for the primary compound screen.
Generally 5-6 compound dilutions are tested and the cellular component of the assay is performed in duplicate, with duplicate ELISA determinations on each cell culture supernatant.
Buffy coat cells isolated from one pint human blood (yielding 40-45 ml final volume plasma plus cells) are diluted with media to 80 ml and LeukoPREP separation tubes (Becton Dickinson) are each overlaid with 10 ml of cell suspension. After 15 min centrifugation at 1500-1800×g, the plasma/media layer is aspirated and then the mononuclear cell layer is collected with a Pasteur pipette and transferred to a 15 ml conical centrifuge tube (Corning). Media is added to bring the volume to 15 ml, gently mix the cells by inversion and centrifuge at 300×g for 15 min. The PBMC pellet is resuspended in a small volume of media, the cells are counted and adjusted to 6×10^6 cells/ml.
For the cellular assay, 1.0 ml of the cell suspension is added to each well of a 24-well flat bottom tissue culture plate (Corning), 0.5 ml test compound dilution and 0.5 ml LPS solution (Sigma #L-3012; 20 ng/ml solution prepared in complete RPMI media; final LPS concentration 5 ng/ml). The 0.5 ml additions of test compound and LPS are usually sufficient to mix the contents of the wells. Three control mixtures are run per experiment, with either LPS alone, solvent vehicle control, and/or additional media to adjust the final culture volume to 2.0 ml. The cell cultures are incubated for 16-18 hr at 37° C. in the presence of 5% CO2.
At the end of the incubation period, cells are harvested and transferred to 15 ml conical centrifuge tubes. After centrifugation for 10 min at 200×g, supernatants are harvested and transferred to 1.5 ml Eppendorf tubes. It may be noted that the cell pellet may be utilized for a biochemical evaluation of pre-IL-1β and/or mature IL-1β content in cytosol extracts by Western blotting or ELISA with pre-IL-1β specific antisera.
PBMC are isolated and prepared as described above. Media (1.0 ml) is first added to wells followed by 0.5 ml of the PBMC suspension. After a one hour incubation, plates are gently shaken and nonadherent cells aspirated from each well. Wells are then gently washed three times with 1.0 ml of media and final resuspended in 1.0 ml media. The enrichment for adherent cells generally yields 2.5-3.0×10^5 cells per well. The addition of test compounds, LPS, cell incubation conditions and processing of supernatants proceeds as described above.
Quantikine kits (R&D Systems) may be used for the measurement of mature IL-1β. Assays are performed according to the manufacturer's directions. Mature IL-1β levels of about 1-3 ng/ml in both PBMC and adherent mononuclear cell positive controls are observed. […]

[3] = substrate Suc-YVAD-pNA 80 μM, 37° C., pH 7.5

Ki [1, 3]	Ki [1]	SMILES	IC50 [2]
0.01 to 1 µM		CC(C)[C@H](NC(=O)c1nccc2ccccc12)C(=O)N1CCN(C)C[C@H]1C(=O)N[C@H](C=O)CC(=O)O [Example 17b]	1 to 2 µM
< 0.01 µM		COc1c(Cl)cc(C(=O)N[C@H](C(=O)N2CCN(C(C)=O)C[C@H]2C(=O)N[C@H](C=O)CC(=O)O)C(C)C)cc1Cl [Example 17c]	> 2 µM
0.01 to 1 µM		CC(=O)N1CCN(C(=O)[C@@H](NC(=O)c2ccc(N)c(Cl)c2)C(C)C)[C@H](C(=O)N[C@H](C=O)CC(=O)O)C1 [Example 17d]	> 2 µM
0.01 to 1 µM		CC(=O)N1CCN(C(=O)[C@@H](NC(=O)c2nccc3ccccc23)C(C)C)[C@H](C(=O)N[C@H](C=O)CC(=O)O)C1 [Example 17e]	0.5 to 1 µM
0.01 to 1 µM		CS(=O)(=O)CC[C@H](NC(=O)c1ccc(N)c(Cl)c1)C(=O)N1CCC[C@H]1C(=O)N[C@H](C=O)CC(=O)O [Example 20j]	> 2 µM
> 1 µM		CC(C)[C@H](N)C(=O)N1CC(c2ccccc2)[C@H]1C(=O)N[C@H](C=O)CC(=O)O (stereo partly shown) [Example 24b]	> 2 µM
< 0.01 µM		CC(C)[C@H](NC(=O)c1ccccc1)C(=O)N1CC[C@H](C)[C@H]1C(=O)N[C@H](C=O)CC(=O)O [Example 26a]	1 to 2 µM
< 0.01 µM		Cc1cc(C(=O)N[C@H](C(=O)N2CC[C@H](C)[C@H]2C(=O)N[C@H](C=O)CC(=O)O)C(C)C)cc(C)c1O [Example 26b]	0.5 to 1 µM
< 0.01 µM		C[C@H](NC(=O)[C@@H](NC(=O)c1ccccc1)C(C)(C)C)C(=O)N[C@H](C=O)CC(=O)O [Example 29m] (Bz-[Tle]-Ala-Asp-aldehyde)	0.5 to 1 µM

Further lines, the compound ahead of its results:

SMILES	Ki [1, 3]	Ki [1]	IC50 [2]
COc1c(Cl)cc(C(=O)N[C@H](C(=O)N2CCC[C@H]2C(=O)N[C@H](C=O)CC(=O)O)C(C)C)cc1Cl [Example 5al]	< 0.01 µM		> 2 µM
CC(C)[C@H](NC(=O)c1ccc(C(C)(C)C)cc1)C(=O)N1CCC[C@H]1C(=O)N[C@H](C=O)CC(=O)O [Example 5am]	< 0.01 µM		> 2 µM
CCCN(CCC)S(=O)(=O)c1ccc(C(=O)N[C@H](C(=O)N2CCC[C@H]2C(=O)N[C@H](C=O)CC(=O)O)C(C)C)cc1 [Example 5ao]	0.01 to 1 µM		> 2 µM
CC(C)[C@H](NC(=O)c1csc(C2COc3ccccc3O2)n1)C(=O)N1CCC[C@H]1C(=O)N[C@H](C=O)CC(=O)O (stereo partly shown) [Example 5aq]	0.01 to 1 µM		> 2 µM
Cc1nn(C)c2ncc(C(=O)N[C@H](C(=O)N3CCC[C@H]3C(=O)N[C@H](C=O)CC(=O)O)C(C)C)c(SC(C)C)c12 [Example 5ar]	< 0.01 µM		> 2 µM
CC(C)[C@H](NC(=O)c1ccc2ncsc2c1)C(=O)N1CCC[C@H]1C(=O)N[C@H](C=O)CC(=O)O [Example 5as]	< 0.01 µM		> 2 µM
CCCc1c(C(=O)N[C@H](C(=O)N2CCC[C@H]2C(=O)N[C@H](C=O)CC(=O)O)C(C)C)cnn1-c1ccc(Cl)cc1 [Example 5at]	0.01 to 1 µM		> 2 µM
Cc1oc(-c2ccccc2)cc1C(=O)N[C@H](C(=O)N1CCC[C@H]1C(=O)N[C@H](C=O)CC(=O)O)C(C)C [Example 5au]	0.01 to 1 µM		> 2 µM
CC(C)[C@H](NC(=O)c1ccc(CSc2ccccn2)o1)C(=O)N1CCC[C@H]1C(=O)N[C@H](C=O)CC(=O)O [Example 5av]	0.01 to 1 µM		> 2 µM
COc1cccc(Oc2ccc(OC)cc2C(=O)N[C@H](C(=O)N2CCC[C@H]2C(=O)N[C@H](C=O)CC(=O)O)C(C)C)c1 [Example 5aw]	< 0.01 µM		1 to 2 µM
CC(C)[C@H](NC(=O)c1ccccc1-c1ccc(C(F)(F)F)cc1)C(=O)N1CCC[C@H]1C(=O)N[C@H](C=O)CC(=O)O [Example 5ba]	< 0.01 µM		1 to 2 µM
CCCc1ccc(-c2ccc(C(=O)N[C@H](C(=O)N3CCC[C@H]3C(=O)N[C@H](C=O)CC(=O)O)C(C)C)cc2)cc1 [Example 5bd]	< 0.01 µM		1 to 2 µM
Cc1ccc2ccccc2c1C(=O)N[C@H](C(=O)N1CCC[C@H]1C(=O)N[C@H](C=O)CC(=O)O)C(C)C [Example 5g]	0.01 to 1 µM		1 to 2 µM
CC(C)Cc1ccc(C(C)C(=O)N[C@H](C(=O)N2CCC[C@H]2C(=O)N[C@H](C=O)CC(=O)O)C(C)C)cc1 (stereo partly shown) [Example 5v]	0.01 to 1 µM	0.01 to 1 µM	> 2 µM
COc1c(Cl)cc(C(=O)N[C@H](C(=O)N2CCNC[C@H]2C(=O)N[C@H](C=O)CC(=O)O)C(C)C)cc1Cl [Example 15d]	0.01 to 1 µM		1 to 2 µM
CC(C)[C@H](NC(=O)c1ccc(N)c(Cl)c1)C(=O)N1CCNC[C@H]1C(=O)N[C@H](C=O)CC(=O)O [Example 15e]	0.01 to 1 µM		> 2 µM
CC(C)[C@H](NC(=O)c1nccc2ccccc12)C(=O)N1CCNC[C@H]1C(=O)N[C@H](C=O)CC(=O)O [Example 15f]	0.01 to 1 µM		> 2 µM
C[C@H](NC(=O)c1nccc2ccccc12)C(=O)N1CCNC[C@H]1C(=O)N[C@H](C=O)CC(=O)O [Example 16a]	0.01 to 1 µM		< 0.5 µM
